Experimental findings from paper PMC12286210, “Immobilization of Pleurotus eryngii Laccase via a Protein–Inorganic Hybrid for Efficient Degradation of Bisphenol A as a Potent Xenobiotic” (Journal of Xenobiotics, 2025) are described below.

One may read the Km as the substrate concentration at which the rate is half of its maximum.

Molecules are shown by their SMILES.

For the experiment, the system named is T1, PeLac (Pleurotus eryngii laccase).
T1 construct: gene ery3
To be noted: free enzyme, partially purified; ABTS 0.01-2.0 mM; 25 °C; co-substrate O2.

In the case of `CCn1c(=NN=c2sc3cc(S(=O)(=O)O)ccc3n2CC)sc2cc(S(=O)(=O)O)ccc21` [ABTS], the Michaelis constant (Km) stood at 118 ± 8.9 µM.
